Laboratory results as given in patent publication EP1191024A1, “Thiadiazines and their use as inhibitors of metalloproteinases” (Tschesche, Harald, priority 2000, dated 2002).
Where a name gives a salt, the structure may show the parent alone. Read-outs that look alike come from different tables or passages of the source.

Columns and labels:
Experiment in all cases: MMP microfluorometric profiling assay (fluorogenic Mca-peptide substrate)
Assay type in all cases: biochemical
[1] = target: T1, MMP-9 (Homo sapiens, UniProt P14780); settings: for percent inhibition: MMP-9, @ 15 (µM)
T1 construct: from tissue; host or cells: human plasma buffy coat (PMNL)
T1 sequence (P14780 107-707 limits assumed): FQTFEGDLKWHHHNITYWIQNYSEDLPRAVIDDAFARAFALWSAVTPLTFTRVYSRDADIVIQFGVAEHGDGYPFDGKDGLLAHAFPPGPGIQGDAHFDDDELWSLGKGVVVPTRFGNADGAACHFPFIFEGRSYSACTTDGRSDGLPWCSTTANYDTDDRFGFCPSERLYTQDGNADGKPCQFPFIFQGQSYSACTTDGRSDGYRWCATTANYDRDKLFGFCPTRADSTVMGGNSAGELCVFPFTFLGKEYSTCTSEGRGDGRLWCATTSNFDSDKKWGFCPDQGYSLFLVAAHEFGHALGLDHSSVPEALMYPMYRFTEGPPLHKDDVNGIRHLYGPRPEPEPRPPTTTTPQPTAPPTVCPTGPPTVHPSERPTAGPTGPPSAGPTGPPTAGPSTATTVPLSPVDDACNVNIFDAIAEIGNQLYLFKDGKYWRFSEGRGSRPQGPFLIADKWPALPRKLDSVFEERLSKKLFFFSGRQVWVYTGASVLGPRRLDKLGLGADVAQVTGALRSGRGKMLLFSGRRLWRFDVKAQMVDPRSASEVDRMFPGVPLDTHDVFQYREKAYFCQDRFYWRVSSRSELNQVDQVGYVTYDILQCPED
Procedure: (§1) The tested MMP enzymes were prepared more specifically in the laboratories of the applicants, with the exception of MMP-1. MMP-1 from human rheumatoid synovial fibroblasts was purchased from Calbiochem-Novabiochem Corporation, LaJolla. Preparation of the recombinant catalytic domain of human Gelatinase A (cdMMP-2): The catalytic domain of Pro-Gelatinase A was prepared using an E. coli expression system according to the method described by Kröger et al^[19]. The proenzyme was activated with 0.5 mM APMA at 37°C prior to use in the assay. Preparation of the recombinant catalytic domain of human neutrophile Collagenase (cdMMP-8^Met80): The enzyme was expressed in E. coli as an active variant by the method of Kleine et al^[20]. Preparation of PMNL-Gelatinase (MMP-9): Latent PMNL-pro-Gelatinase was prepared from human plasma buffy coat as described by Tschesche et al^[21]. PMNL-pro-Gelatinase was activated prior to use by incubation with Trypsin at 37°C for 10 min. Inactivation of Trypsin was accomplished with TKI. Preparation of the recombinant catalytic domain of human Macrophage Elastase (cdMMP-12): The catalytic domain of MMP-12 was expressed in E. coli. The overexpressed protein was isolated as inclusion bodies and the renatured protein was purified by affinity chromatography with a hydroxamate inhibitor coupled column as described^[22]. Preparation of the recombinant catalytic domain of human Collagenase-3 (cdMMP-13): Human pro-cdMMP-13 was prepared using an E. coli expression system according to the method described^[23]. The isolated pro-cdMMP-13 was activated prior to use by incubation with 5 mM HgCl2 for 2 h at 37°C. Preparation of the recombinant catalytic domain of Membrane-Type-1 MMP (cdMMP-14): The catalytic domain of MMP-14 was expressed in E. coli and was activated by autocatalysis^[24]. Preparation of the recombinant human ectodomain of Membrane-Type-1 MMP (ΔTM-MMP-14): The ectodomain of MMP-14 was expressed in Pichia Pastoris by the method of Roderfeld et al. and activated by yeast proteases (Furin-like-proteases) during maturation^[25].
(§2) The enzymatic activity was measured using a modified version of a resonance energy transfer fluorogenic assay as described^[26]. Progress curves were monitored by following the increase in fluorescence at 393 nm (λex = 328 nm), induced by the cleavage of the (7-methoxycoumarin-4-yl)acetyl-Pro-Leu-Gly-Leu-(3-[2,4-dinitro-phenyl]-L-2,3-diamino-propionyl)-Ala-Arg-NH2 (Mca-Pro-Leu-Gly-Leu-Dpa-Ala-Arg-NH2) fluorogenic substrate by MMPs. The fluorescent MCA-group is quenched by resonance energy transfer to the 2,4-dinitrophenyl group. Matrix metalloproteinases cleave this substrate at the Gly-Leu bond. Cleavage results in the loss of energy transfer and a large increase in fluorescence of the MCA group. This substrate is commercially available from Bachem, Switzerland.
(§3) Enzyme inhibition assays were carried out in MRB which consisted of 50 mM HEPES/NaOH, pH 7.0, 10 mM CaCl2 and 0,02% (w/v) PEG 8000 at 25°C. MMP microfluorometric profiling assay was done in white U-bottomed 96-well plates (Microfluor 1 White, Dynex, USA) with a final substrate concentration of 6 µM MCA-peptide, approximately 0.3 to 5 nM MMP with variable inhibitor concentrations and 2% DMSO vehicle. From a 1.5 mM stock (100% DMSO) the inhibitors were serially diluted with MRB to 15, 10, 5, 3, 1, 0.6, 0.3, 0.1, 0.05, 0.01 and 0.005 µM final assay concentration. Column 1, rows A through H, contained only DMSO for the "enzyme-only" wells in the assay. After preincubation for 30 min at 25°C the reaction was started by addition of substrate and the plate was read on a SpectraFluor Plus (Tecan, Germany) plate reader with excitation at 330 nm and emission at 405 nm with the gain set to 150. Each measurement was done in triplicate to ensure statistically significant results. […]

[2] = target: T2, cdMMP-12 (Homo sapiens, UniProt P39900)
T2 construct: The catalytic domain of MMP-12 was expressed in E. coli; made in house; host or cells: E. coli
T2 sequence (P39900 106-263 limits assumed): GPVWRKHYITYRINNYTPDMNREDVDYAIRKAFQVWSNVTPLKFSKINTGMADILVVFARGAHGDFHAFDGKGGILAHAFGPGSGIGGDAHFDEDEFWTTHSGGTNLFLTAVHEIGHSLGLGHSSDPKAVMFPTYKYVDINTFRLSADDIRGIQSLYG
Procedure: as §1, §2, §3

[3] = target: cdMMP-13 (Homo sapiens, UniProt P45452); settings: for percent inhibition: cdMMP-13, @ 15 (µM)
Procedure: as §1, §2, §3

[4] = target: T3, cdMMP-14 (Homo sapiens, UniProt P50281); settings: for percent inhibition: cdMMP-14, @ 15 (µM)
T3 construct: made in house; host or cells: E. coli
Procedure: as §1, §2, §3

[5] = target: T4, MMP-1 (Homo sapiens, UniProt P03956)
T4 construct: MMP-1 from human rheumatoid synovial fibroblasts was purchased; purchased Calbiochem-Novabiochem Corporation, LaJolla; host or cells: human rheumatoid synovial fibroblasts
T4 sequence (P03956 100-469): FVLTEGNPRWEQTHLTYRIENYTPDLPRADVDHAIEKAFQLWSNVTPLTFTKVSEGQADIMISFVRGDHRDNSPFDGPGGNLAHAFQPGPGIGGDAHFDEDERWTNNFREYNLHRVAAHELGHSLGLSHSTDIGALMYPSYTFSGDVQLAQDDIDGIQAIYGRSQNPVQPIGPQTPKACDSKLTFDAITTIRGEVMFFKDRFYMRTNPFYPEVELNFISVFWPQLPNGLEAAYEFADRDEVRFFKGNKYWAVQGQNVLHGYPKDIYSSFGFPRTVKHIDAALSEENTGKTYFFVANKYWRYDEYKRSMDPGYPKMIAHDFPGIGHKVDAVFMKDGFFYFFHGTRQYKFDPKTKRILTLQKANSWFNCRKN
Procedure: as §1, §2, §3

[6] = target: T5, ΔTM-MMP-14 (Homo sapiens, UniProt P50281)
T5 construct: The ectodomain of MMP-14 was expressed in Pichia Pastoris; made in house; host or cells: Pichia pastoris
Procedure: as §1, §2, §3

Structure (SMILES) | IC50 [1] | IC50 [2] | IC50 ([3]; read-out: cdMMP-13 IC50) | IC50 [4] | IC50 [5] | IC50 [6] | percent inhibition [1] | percent inhibition [3] | percent inhibition ([6]; ΔTM-MMP-14, @ 15 (µM)) | percent inhibition [4] | percent inhibition ([5]; MMP-1, @ 15 (µM)) | IC50 [3]
C[C@H](NS(=O)(=O)c1cccnc1)C(=O)NC1=NN=C(c2ccc(Cl)cc2)CS1 [Example 29, (2S)-N-[5-(4-Chlorophenyl)-6H-1,3,4-thiadiazin-2-yl]-2-[(3-pyridylsulfonyl)-amino]propanamide] | 257 nM | 403 nM | 361 nM | 443 nM | 507 nM | 430 nM | – | – | – | – | – | –
C=CCNC1=NN=C(c2ccc(Cl)cc2)CS1 [Example 31, N-Allyl-5-(4-chlorophenyl)-6H-1,3,4-thiadiazin-2-amine hydrobromide] | 783 nM | > 15000 nM | – | 2700 nM | – | – | – | – | – | – | – | > 15000 nM
O=C(CC1NC(=O)NC1=O)NC1=NN=C(c2ccc(N3CCCC3)cc2)CS1 (stereo not drawn) [Example 26, 2-(2,5-Dioxo-4-imidazolidinyl)-N-{5-[4-(1-pyrrolidinyl)phenyl]-6H-1,3,4-thiadiazin-2-yl}acetamide] | 517 nM | 217 nM | – | 1100 nM | – | – | – | 36%^a)@ 15 | 63%^a)@ 15 | – | – | –
COc1ccc(C2=NN=C(NC(=O)[C@H](C)NS(=O)(=O)c3ccccc3)SC2)cc1 [Example 12, (2S)-N-[5-(4-Methoxyphenyl)-6H-1,3,4-thiadiazin-2-yl]-2-[(phenylsulfonyl)-amino]propanamide] | 1400 nM | 412 nM | 2310 nM | 1120 nM | 663 nM | – | – | – | – | – | – | –
C[C@H](NS(=O)(=O)N1CCOCC1)C(=O)NC1=NN=C(c2ccc(Cl)cc2)CS1 [Example 28, (2S)-N-[5-(4-Chlorophenyl)-6H-1,3,4-thiadiazin-2yl-]-2-[(4-morpholinylsulfonyl)amino]propanamide] | 1200 nM | 330 nM | – | 471 nM | 537 nM | – | – | – | – | – | – | 735 nM
C[C@H](NS(=O)(=O)c1ccccc1)C(=O)NC1=NN=C(c2ccc(Br)cc2)CS1 [Example 6, (2S)-N-[5-(4-Bromophenyl)-6H-1,3,4-thiadiazin-2-yl]-2-[(phenylsulfonyl)amino]-propanamide] | 686 nM | 533 nM | – | 637 nM | – | – | – | – | – | – | – | 658 nM
C[C@H](NS(=O)(=O)c1ccccc1)C(=O)NC1=NN=C(c2ccc([N+](=O)[O-])cc2)CS1 [Example 9, (2S)-N-[5-(4-Nitrophenyl)-6H-1,3,4-thiadiazin-2-yl]-2-[(phenylsulfonyl)amino]-propanamide] | 552 nM | 342 nM | 449 nM | 556 nM | 294 nM | – | – | – | – | – | – | –

Further lines, with some results ahead:

IC50 [1] | IC50 [2] | IC50 ([3]; read-out: cdMMP-13 IC50) | IC50 [4] | IC50 [5] | IC50 [6] | percent inhibition [1] | percent inhibition [3] | percent inhibition ([6]; ΔTM-MMP-14, @ 15 (µM)) | percent inhibition [4] | percent inhibition ([5]; MMP-1, @ 15 (µM)) | Structure (SMILES) | IC50 [3]
851 nM | 463 nM | > 15000 nM | 1400 nM | – | – | – | – | – | – | – | CC(C)[C@H](NS(=O)(=O)c1ccccc1)C(=O)NC1=NN=C(c2ccc(Cl)cc2)CS1 [Example 22, (2S)-N-[5-(4-Chlorophenyl)-6H-1,3,4-thiadiazin-2-yl]-3-methyl-2-[(phenylsulfonyl)amino]butanamide] | –
– | 297 nM | – | 1070 nM | – | – | 45%^a)@ 15 | 39%^a)@ 15 | – | – | – | O=C(CC1NC(=O)NC1=O)NC1=NN=C(c2ccc(Br)cc2)CS1 (stereo not drawn) [Example 24, N-[5-(4-Bromophenyl)-6H-1,3,4-thiadiazin-2-yl]-2-(2,5-dioxo-4-imidazolidinyl)-acetamide] | –
2570 nM | 920 nM | 1090 nM | 1760 nM | – | – | – | – | – | – | – | COc1ccc(S(=O)(=O)NCC(=O)NC2=NN=C(c3c(F)c(F)c(F)c(F)c3F)CS2)cc1 [Example 16, 2-{[(4-Methoxyphenyl)sulfonyl]amino}-N-[5-(2,3,4,5,6-pentafluorophenyl)-6H-1,3,4-thiadiazin-2-yl]acetamide] | –
2600 nM | 657 nM | 1410 nM | 780 nM | 424 nM | 887 nM | – | – | – | – | – | CC(C)(C)c1ccc(S(=O)(=O)NCC(=O)NC2=NN=C(c3ccc(Cl)cc3Cl)CS2)cc1 [Example 18, 2-{[(4-tert-Butylphenyl)sulfonyl]amino}-N-[5-(2,4-dichlorophenyl)-6H-1,3,4-thiadiazin-2-yl]acetamide] | –
232 nM | 444 nM | 368 nM | 346 nM | 451 nM | 610 nM | – | – | – | – | – | C[C@@H](NS(=O)(=O)c1ccccc1)C(=O)NC1=NN=C(c2ccc(C#N)cc2)CS1 [Example 1, (2R)-N-[5-(4-Cyanophenyl)-6H-1,3,4-thiadiazine-2-yl]-2-[(phenylsulfonyl)amino]-propanamide] | –
– | 380 nM | – | – | – | – | 40%^a)@ 15 | 34%^a)@ 15 | – | 52%^a)@ 15 | – | O=C(CC1NC(=O)NC1=O)NC1=NN=C(c2ccc(Cl)cc2)CS1 (stereo not drawn) [Example 23, N-[5-(4-Chlorophenyl)-6H-1,3,4-thiadiazin-2-yl]-2-(2,5-dioxo-4-imidazolidinyl)-acetamide] | –
661 nM | 259 nM | 605 nM | 700 nM | – | – | – | – | – | – | – | COc1ccc(S(=O)(=O)NCC(=O)NC2=NN=C(c3ccc(Cl)cc3Cl)CS2)cc1 [Example 19, N-[5-(2,4-Dichlorophenyl)-6H-1,3,4-thiadiazin-2-yl]-2-{[(4-methoxyphenyl)-sulfonyl]amino}acetamide] | –
689 nM | 436 nM | 1110 nM | 707 nM | – | – | – | – | – | – | – | COc1ccc(S(=O)(=O)N[C@@H](C)C(=O)NC2=NN=C(c3ccc(C)cc3)CS2)cc1 [Example 17, (2S)-2-{[(4-Methoxyphenyl)sulfonyl]amino}-N-[5-(4-methylphenyl)-6H-1,3,4-thiadiazin-2-yl]propanamide] | –
– | 1420 nM | – | – | – | – | 49%^a)@ 15 | 67%^a)@ 15 | – | 66%^a)@ 15 | 67%^a)@ 15 | O=C(CC1NC(=O)NC1=O)NC1=NN=C(c2ccc(C3CCCCC3)cc2)CS1 (stereo not drawn) [Example 25, N-[5-(4-Cyclohexylphenyl)-6H-1,3,4-thiadiazin-2-yl]-2-(2,5-dioxo-4-imidazolidinyl)acetamide] | –
